In patent US8686024B2, “Indoline derivatives” (priority 2009, dated 2014):
Where two headings read alike, the source gives them in different places.

Columns and labels:
[1] = biological target: T1, butyrylcholine esterase (BuChE) (Mus musculus, UniProt Q03311); assay: In vitro assay for choline esterase inhibition (Ellman method), butyrylthiocholine substrate, mouse serum; format: biochemical; conditions: for Ratio AChE/BuChE: selectivity for BuChE inhibition: IC50 (AchE)/IC50 (BuChE); for selectivity to butyrylcholinesterase (BuChE versus AChE inhibitory activity), in words: summary of Tables 1-3
T1 construct: brain homogenate and serum of mouse were used as choline esterase enzyme sources; from tissue; host or cells: mouse serum
T1 sequence (Q03311 30-603): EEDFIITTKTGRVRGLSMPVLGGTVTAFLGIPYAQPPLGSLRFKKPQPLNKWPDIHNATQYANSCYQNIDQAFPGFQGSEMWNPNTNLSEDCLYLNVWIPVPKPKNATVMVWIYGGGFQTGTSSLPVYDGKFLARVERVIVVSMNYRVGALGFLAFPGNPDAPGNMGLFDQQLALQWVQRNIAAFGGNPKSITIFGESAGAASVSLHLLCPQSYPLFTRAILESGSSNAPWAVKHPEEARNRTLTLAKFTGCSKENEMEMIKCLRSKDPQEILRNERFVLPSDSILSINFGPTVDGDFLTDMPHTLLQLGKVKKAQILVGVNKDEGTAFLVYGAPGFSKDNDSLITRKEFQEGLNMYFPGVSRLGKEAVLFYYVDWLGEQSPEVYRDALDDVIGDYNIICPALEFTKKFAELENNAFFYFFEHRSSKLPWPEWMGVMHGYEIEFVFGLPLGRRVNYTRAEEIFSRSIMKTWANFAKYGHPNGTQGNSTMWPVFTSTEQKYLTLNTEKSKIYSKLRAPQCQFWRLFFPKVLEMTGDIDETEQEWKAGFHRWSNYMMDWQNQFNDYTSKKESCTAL
Protocol: (§1) For measurement of esterase activity, brain homogenate and serum of mouse were used as choline esterase enzyme sources, and the method of Ellman et. al (Biochemical pharmacology 7: 88-95 1961) were referred. Compound of each example were diluted in dimethylsulfoxide.
(§2) In detail, acetylthiocholine or butyrylthiocholine as substrates, test compounds, and DNTB [[…]] were added to the mouse brain homogenate or serum, respectively.
(§3) After incubation, thiocholine was produced by enzyme reaction in the mixture, and then, the yellow product was formed by the reaction of thiocholine and DTNB. The activity of acetylcholine esterase (AChE) or butyrylcholine esterase (BuChE) was evaluated by determination of absorbance at 415 nm. […] And the selectivity for BuChE inhibition of each compound was calculated by the ratio: IC50 (AchE)/IC50 (BuChE).

[2] = biological target: T2, acetylcholine esterase (AChE) (Mus musculus, UniProt P21836); assay: In vitro assay for choline esterase inhibition (Ellman method), acetylthiocholine substrate, mouse brain homogenate; format: biochemical
T2 construct: brain homogenate and serum of mouse were used as choline esterase enzyme sources; from tissue; host or cells: mouse brain homogenate
T2 sequence (P21836 32-614): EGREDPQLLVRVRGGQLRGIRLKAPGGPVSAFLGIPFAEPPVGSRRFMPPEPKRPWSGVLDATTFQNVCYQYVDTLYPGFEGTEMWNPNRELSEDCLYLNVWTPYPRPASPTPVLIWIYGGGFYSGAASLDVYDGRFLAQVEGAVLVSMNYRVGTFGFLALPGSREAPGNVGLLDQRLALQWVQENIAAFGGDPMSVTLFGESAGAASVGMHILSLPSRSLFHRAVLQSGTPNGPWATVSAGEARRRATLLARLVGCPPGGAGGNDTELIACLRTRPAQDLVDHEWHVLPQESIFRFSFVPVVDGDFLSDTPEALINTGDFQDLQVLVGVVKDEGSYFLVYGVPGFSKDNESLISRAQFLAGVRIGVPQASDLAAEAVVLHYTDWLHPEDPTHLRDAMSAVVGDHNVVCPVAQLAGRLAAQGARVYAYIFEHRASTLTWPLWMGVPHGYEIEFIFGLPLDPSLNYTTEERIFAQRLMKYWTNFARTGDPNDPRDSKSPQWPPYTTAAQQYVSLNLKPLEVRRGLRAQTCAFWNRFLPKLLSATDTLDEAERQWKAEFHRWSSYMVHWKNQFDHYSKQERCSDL
Protocol: as §1, §2, §3

[3] = mouse serum, butyrylthiocholine, absorbance at 415 nm, read-out: BuChE inhibitory activity IC50
[4] = mouse brain homogenate, acetylthiocholine, absorbance at 415 nm, read-out: AChE inhibitory activity IC50

Row | SMILES | IC50 [1] [nM] | Ratio AChE/BuChE [1] | IC50 [2] [nM] | selectivity to butyrylcholinesterase (BuChE versus AChE inhibitory activity), in words [1] | IC50 [1, 3] [nM] | IC50 [2, 4] [nM]
1 | CC(C)c1ccc(NC(=O)Oc2ccc3c(c2)CCN3Cc2ccccc2)cc1 [Example 2, 1-benzylindolin-5-yl 4-isopropylphenylcarbamate] | 570 | >180 | > 100000 |  |  | 
2 | CC(C)c1ccc(NC(=O)Oc2ccc3c(c2)CCN3CCc2ccccc2)cc1 [Example 3, 1-phenethylindolin-5-yl 4-isopropylphenylcarbamate] | 1200 | >83 | > 100000 |  |  | 
3 | CC(C)c1ccc(NC(=O)Oc2ccc3c(c2)CCN3CCC(C)(C)C)cc1 [Example 7, 1-(3,3-dimethylbutyl)indolin-5-yl 4-isopropylphenylcarbamate] | 900 | >110 | > 100000 |  |  | 
4 | COc1ccc(NC(=O)Oc2ccc3c(c2)CCN3Cc2ccccc2)cc1 [Example 9, 1-benzylindolin-5-yl 4-methoxyphenylcarbamate] | 98 | >1000 | > 100000 | much higher |  | 
5 | O=C(Nc1ccc2c(c1)OCCO2)Oc1ccc2c(c1)CCN2Cc1ccccc1 [Example 11, 1-benzylindolin-5-yl 2,3-dihydro-1,4-benzodioxin-6-ylcarbamate] | 170 | >590 | > 100000 |  |  | 
6 | O=C(Nc1ccc2c(c1)OCO2)Oc1ccc2c(c1)CCN2Cc1ccccc1 [Example 12, 1-benzylindolin-5-yl 5-benzo[d][1,3]dioxolylcarbamate] |  | 38 |  |  | 290 | 11000
7 | O=C(Nc1ccc2c(c1)CCO2)Oc1ccc2c(c1)CCN2Cc1ccccc1 [Example 14, 1-benzylindolin-5-yl 2,3-dihydro-1-benzofuran-5-ylcarbamate] |  | 66 |  |  | 41 | 2700
8 | O=C(NCc1ccccc1)Oc1ccc2c(c1)CCN2Cc1ccccc1 [Example 15, 1-benzylindolin-5-yl benzylcarbamate] |  | 140 |  | much higher | 13 | 1800
9 | O=C(NCCc1ccccc1)Oc1ccc2c(c1)CCN2Cc1ccccc1 [Example 16, 1-benzylindolin-5-yl phenethylcarbamate] |  | 230 |  | much higher | 42 | 9800
10 | CCCCCCNC(=O)Oc1ccc2c(c1)CCN2Cc1ccccc1 [Example 17, 1-benzylindolin-5-yl n-hexylcarbamate] |  | 500 |  | much higher | 16 | 8000
11 | O=C(NCc1ccco1)Oc1ccc2c(c1)CCN2Cc1ccccc1 [Example 18, 1-benzylindolin-5-yl furfurylcarbamate] |  | 47 |  |  | 38 | 1800
12 | C[C@H](NC(=O)Oc1ccc2c(c1)CCN2Cc1ccccc1)c1ccccc1 [Example 19, 1-benzylindolin-5-yl (S)-1-phenylethylcarbamate] | 190 | >530 | > 100000 |  |  | 
13 | O=C(NC1CCCCC1)Oc1ccc2c(c1)CCN2Cc1ccccc1 [Example 20, 1-benzylindolin-5-yl cyclohexylcarbamate] | 67 | >1500 | > 100000 | much higher |  | 
14 | CC(C)c1ccc(NC(=O)Oc2ccc3c(c2)CCN3Cc2ccncc2)cc1 [Example 27, 1-(4-pyridylmethyl)indolin-5-yl 4-isopropylphenylcarbamate] | 1100 | >91 | > 100000 |  |  | 
15 | CC(C)c1ccc(NC(=O)Oc2ccc3c(c2)CCN3Cc2cccnc2)cc1 [Example 28, 1-(3-pyridylmethyl)indolin-5-yl 4-isopropylphenylcarbamate] | 470 | >210 | > 100000 |  |  | 
16 | COc1ccc(CNC(=O)Oc2ccc3c(c2)CCN3Cc2ccccc2)cc1 [Example 31, 1-benzylindolin-5-yl 4-methoxybenzylcarbamate] |  | 240 |  | much higher | 17 | 4100
17 | COc1ccc(CCNC(=O)Oc2ccc3c(c2)CCN3Cc2ccccc2)cc1 [Example 32, 1-benzylindolin-5-yl 4-methoxyphenethylcarbamate] | 160 | >630 | > 100000 |  |  | 
18 | CC(C)c1ccc(CCNC(=O)Oc2ccc3c(c2)CCN3Cc2ccccc2)cc1 [Example 33, 1-benzylindolin-5-yl 4-isopropylphenethylcarbamate] | 350 | >290 | > 100000 |  |  | 
19 | O=C(NCC1CCCCC1)Oc1ccc2c(c1)CCN2Cc1ccccc1 [Example 34, 1-benzylindolin-5-yl cyclohexylmethylcarbamate] | 3 | >33000 | > 100000 | much higher |  | 
20 | CC(C)CNC(=O)Oc1ccc2c(c1)CCN2Cc1ccccc1 [Example 35, 1-benzylindolin-5-yl 2-methylpropylcarbamate] |  | 5800 |  | much higher | 8 | 46000
21 | O=C(NC1CC1)Oc1ccc2c(c1)CCN2Cc1ccccc1 [Example 41, 1-benzylindolin-5-yl cyclopropylcarbamate] |  | 190 |  |  | 190 | 36000
22 | CC(C)(C)CCNC(=O)Oc1ccc2c(c1)CCN2Cc1ccccc1 [Example 42, 1-benzylindolin-5-yl 3,3-dimethylbutylcarbamate] | 23 | >4300 | > 100000 | much higher |  | 
23 | CC(C)(C)C1CCC(NC(=O)Oc2ccc3c(c2)CCN3Cc2ccccc2)CC1 (stereo not drawn) [Example 43, 1-benzylindolin-5-yl 4-tert-butylcyclohexylcarbamate] | 170 | >590 | > 100000 |  |  | 
24 | O=C(NC1Cc2ccccc2C1)Oc1ccc2c(c1)CCN2Cc1ccccc1 [Example 44, 1-benzylindolin-5-yl 2-indanylcarbamate] | 32 | >3100 | > 100000 | much higher |  | 
25 | O=C(NC1CCCCCCC1)Oc1ccc2c(c1)CCN2Cc1ccccc1 [Example 45, 1-benzylindolin-5-yl cyclooctylcarbamate] | 21 | >4800 | > 100000 | much higher |  | 
26 | CCC(COC)NC(=O)Oc1ccc2c(c1)CCN2Cc1ccccc1 (stereo not drawn) [Example 46, 1-benzylindolin-5-yl 1-methoxybutan-2-ylcarbamate] | 150 | >670 | > 100000 |  |  | 
27 | O=C(NCC12CC3CC(CC(C3)C1)C2)Oc1ccc2c(c1)CCN2Cc1ccccc1 [Example 47, 1-benzylindolin-5-yl 1-adamantanemethylcarbamate] | 82 | >1200 | > 100000 | much higher |  | 
28 | CSCCCNC(=O)Oc1ccc2c(c1)CCN2Cc1ccccc1 [Example 49, 1-benzylindolin-5-yl 3-methylthiopropylcarbamate] |  | 530 |  | much higher | 12 | 6300
29 | CCCCCC(C)NC(=O)Oc1ccc2c(c1)CCN2Cc1ccccc1 (stereo not drawn) [Example 50, 1-benzylindolin-5-yl 2-heptylcarbamate] | 53 | >1900 | > 100000 | much higher |  | 
30 | O=C(NCC1CCCO1)Oc1ccc2c(c1)CCN2Cc1ccccc1 (stereo not drawn) [Example 51, 1-benzylindolin-5-yl 2-tetrahydrofurylmethylcarbamate] |  | 1100 |  | much higher | 16 | 18000
